Measured values taken from patent publication US7084144B2, “Sulfonyl group containing compounds and their use for the treatment of erectile dysfunction” (The Jordanian Pharmaceutical MFG & Medical Equipment CO LTD, priority 2000, dated 2006).
“Also recorded” adds a separate entry of the source.

Columns and labels:
[1] = test system: male rats; assay: Penile erection (responding rats, PEI, ED50) in male rats after oral administration; assay type: in vivo, rat; settings: for PEI (penile erection index) / responding rats % / Calculated ED50: male rats, oral; for PEI (penile erection index) / responding rats %: 10 rats used, 2 hours observation; for Calculated ED50: responding rats as a function of dose; for PEI (penile erection indexes) for selected molecules: Tables 4-6, dose not given
Procedure: The purpose of the study was to compare the biological activity of compound 1 of the present invention with that of sildenafil. In particular, the respective ED50 value (ED=effective dose), erection episodes and penile erection indexes of said compounds in the treatment of male rats were determined. The penile erection index is an established means of determining the erection promoting properties of a substance (see e.g. Benassi-Benelli, F., Ferari, F., and Pellegrini Quaratotti, B., Arch. Int. Pharmacodyn., 242, 241–247, (1979), and Ang. H. H., Sim, M. K., Pharm. Sci., 3, 17–119, (1997) and references cited therein).
In these experiments, compound 1 of the present invention and sildenafil were administered to male rats orally. The doses for sildenafil were 0.0781, 0.1562, 0.3125 and 0.625 mg/kg body weight, while doses for compound 1 of the present invention were 0.3, 0.6, 1, and 2 mg/kg body weight. Both sildenafil and compound 1 of the present invention were dissolved in distilled water. Control animals were administered with water. During the experiments, the rats were placed in glass cages for observation and had free access to food and water. During 2 hours after administration of the investigated compound, the penile erection and self-sucking were monitored.

[2] = test system: cGMP accumulation in isolated rabbit corpus carvenosum tissue; assay: cGMP accumulation in isolated rabbit corpus carvenosum tissue (ELISA), with and without NO donor SNP; assay type: cell-based, White New Zealand rabbits; settings: FIG. 1; for effect on the levels of cGMP: absence of NO donor, tested concentrations up to 100,000 nM
Procedure: (§1) Method for Analysis of cGMP & cAMP Synthesis and Accumulation in Penile Tissues: White New Zealand rabbits were sacrificed. Excise the penises rapidly after killing the animals, remove epidermal & connective tissue. Dissect out and discard the urethra carefully. Cut the penises longitudinally into 2 equal strips and then laterally to give about 20–40 segments. Pool and incubate the segments of the corpus cavernosum in Dulbecco's minimum essential Medium (MEM) at room temperature for one hour to allow the tissues to recover from preparative handling. Effect of Drug on cGMP and cAMP Formation:
(§2) Place one penile segment in triplicate for each drug dose in 200 μl MEM. Place one penile segment in triplicate for each drug dose with 10 μM SNP (sodium nitroprusside) in 200 μl MEM. (in the case of cGMP). Incubate the tubes at 37° C. for 30 min, stop the reaction by adding 200 μl of 1 mol/l perchloric acid and sonicate for 5 min. Neutralize the aliquots with 0.5 mol/l K3PO4.3H2O to pH 6.2 (240 μl), centrifuge and take the supernatant in aliquots. Keep at 4° C. and assay for the concentrations of cAMP and cGMP in the extract using ELISA (enzyme linked immunosorbant assay). Preparation of Zero sample: Add 200 ul MEM, 200 ul 1M perchloric acid and 240 μl 0.5 mol/L K3PO4.3H2O in one tube.
(§3) The main concentrations were in the range 0–20,000 or 100,000 nM. A stock solution of 1 mM for both drugs were prepared in distilled water. Serial dilution were prepared in MEM giving working drug concentrations of 0, 1000, 4000, 8000, 10000, 20000 and 100000 nM. In the case of cGMP the tests were carried out with and without NO donor (SNP). For this purpose 10 μM SNP was included when necessary.

[3] = test system: cAMP accumulation in isolated rabbit corpus carvenosum tissue; assay: cAMP accumulation in isolated rabbit corpus carvenosum tissue (ELISA); assay type: cell-based, White New Zealand rabbits; settings: absence of NO donor, FIG. 2; for effect on the accumulation of cAMP levels: up to 20,000 nM
Procedure: as §1, §2, §3

CCCc1nn(C)c2c(=O)[nH]c(-c3cc(S(=O)(=O)N4CCN(C)CC4)ccc3OCC)nc12 [Sildenafil, sildenafil, reference compound]
PEI (penile erection index) ([1]; dose 0.0781 mg/kg): 90 | responding rats % ([1]; dose 0.0781 mg/kg): 30% | PEI (penile erection index) ([1]; dose 0.1562 mg/kg): 150 | responding rats % ([1]; dose 0.1562 mg/kg): 30% | PEI (penile erection index) ([1]; dose 0.3125 mg/kg): 350 | responding rats % ([1]; dose 0.3125 mg/kg): 50% | PEI (penile erection index) ([1]; dose 0.625 mg/kg): 980 | responding rats % ([1]; dose 0.625 mg/kg): 70% | Calculated ED50 [1]: ^(2)Calculated ED50 = 0.2473 mg/kg body weight | concentration giving maximum increase of cGMP levels ([2]; NO donor added (10 μM SNP)): about 10,000 nM | effect on the levels of cGMP [2]: very little effect; also recorded: almost flat effect | concentration giving maximum increase in cAMP levels [3]: 8000–10,000 nM | effect on the accumulation of cAMP levels [3]: remarkable increase

CN1CCN(S(=O)(=O)c2ccccc2)CC1 [R0=—CH3; R1=—H (Table 4)]
PEI (penile erection indexes) for selected molecules [1]: 420

Cc1ccc(S(=O)(=O)NN2CCN(C)CC2)cc1 [R0=—CH3; R1=—CH3; n=0 (Table 6)]
PEI (penile erection indexes) for selected molecules [1]: 90

CN1CCN(NS(=O)(=O)c2ccccc2)CC1 [R0=—CH3; R1=—H; n=0 (Table 6)]
PEI (penile erection indexes) for selected molecules [1]: 80

Cc1ccc(S(=O)(=O)N2CCN(C)CC2)cc1 [R0=—CH3; R1=—CH3 (Table 4)]
PEI (penile erection indexes) for selected molecules [1]: 240

CN1CCN(S(=O)(=O)c2ccc3c(c2)OCO3)CC1 [Compound 1]
PEI (penile erection indexes) for selected molecules [1]: 1015 | PEI (penile erection index) ([1]; dose 0.3 mg/kg): 22.5 | responding rats % ([1]; dose 0.3 mg/kg): 15% | PEI (penile erection index) ([1]; dose 0.6 mg/kg): 260 | responding rats % ([1]; dose 0.6 mg/kg): 40% | PEI (penile erection index) ([1]; dose 1.0 mg/kg): 665 | responding rats % ([1]; dose 1.0 mg/kg): 70% | PEI (penile erection index) ([1]; dose 2.0 mg/kg): 1020 | responding rats % ([1]; dose 2.0 mg/kg): 85% | Calculated ED50 [1]: ^(3)Calculated ED50 = 0.7822 mg/kg body weight | concentration giving maximum increase of cGMP levels ([2]; NO donor added (10 μM SNP)): about 4000 nM | effect on cGMP accumulation compared with sildenafil ([2]; NO donor added (10 μM SNP), at 10,000 nM): better effect than sildenafil | effect on the levels of cGMP [2]: very little effect; also recorded: weak effect | effect on the accumulation of cAMP levels [3]: no effect at all | melting point: 137 to 138 °C
